Earlier results on two compounds are cited in paper PMC12005229, “Final results from the phase Ia/Ib study of the novel bromodomain and extra-terminal domain inhibitor, BI 894999, in patients with advanced solid tumors or diffuse large B-cell lymphoma” (ESMO Open, 2025).

Structures are written as SMILES.

For data set [1], the system named is patients with relapsed/refractory DLBCL. Further details: method as in PMID 34581757. Particulars: in combination with venetoclax and rituximab, 39 patients with relapsed/refractory DLBCL; cited from earlier work.
For data set [2], the system named is patients with relapsed/refractory acute myeloid leukemia. On the set-up: method as in PMID 33934351. The note with it: 44 patients with relapsed/refractory acute myeloid leukemia; cited from earlier work.

Regarding `Cc1sc2c(c1C)C(c1ccc(Cl)cc1)=N[C@@H](CC(=O)NCCCN1CCN(C)CC1)c1nnc(C)n1-2` [RO6870810], in data set [1], the complete responses was 20.5% and the overall response rate is recorded as 38.5%. As for `CCS(=O)(=O)Nc1ccc(Oc2ccc(F)cc2F)c(-c2cn(C)c(=O)c3[nH]ccc23)c1` [mivebresib], the “efficacy of combination with venetoclax compared with monotherapy” value in data set [2] is listed as “higher efficacy in the combination group”.
